# Measurements published in patent US20210395256A1, “TYROSINE KINASE INHIBITORS, COMPOSITIONS AND METHODS THERE OF” (Betta Pharmaceuticals Co., Ltd., priority 2018, published 2021).
# pIC50: −log10 of the molar value.
# Target: TrkA kinase (Homo sapiens, UniProt P04629)
# Assay: TrkA kinase assay (mobility shift assay)
# Type: biochemical
# Conditions: class symbols; read-out: Trk A Kinase IC50
# Summary of the method: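 Ten-point compound series was preincubated 10 min at room temperature with TrkA, then FAM-peptide plus ATP added in HEPES pH 7.5/Brij-35 buffer and reacted at 28 °C before EDTA quench.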
# Sequence of TrkA kinase (P04629 33-796): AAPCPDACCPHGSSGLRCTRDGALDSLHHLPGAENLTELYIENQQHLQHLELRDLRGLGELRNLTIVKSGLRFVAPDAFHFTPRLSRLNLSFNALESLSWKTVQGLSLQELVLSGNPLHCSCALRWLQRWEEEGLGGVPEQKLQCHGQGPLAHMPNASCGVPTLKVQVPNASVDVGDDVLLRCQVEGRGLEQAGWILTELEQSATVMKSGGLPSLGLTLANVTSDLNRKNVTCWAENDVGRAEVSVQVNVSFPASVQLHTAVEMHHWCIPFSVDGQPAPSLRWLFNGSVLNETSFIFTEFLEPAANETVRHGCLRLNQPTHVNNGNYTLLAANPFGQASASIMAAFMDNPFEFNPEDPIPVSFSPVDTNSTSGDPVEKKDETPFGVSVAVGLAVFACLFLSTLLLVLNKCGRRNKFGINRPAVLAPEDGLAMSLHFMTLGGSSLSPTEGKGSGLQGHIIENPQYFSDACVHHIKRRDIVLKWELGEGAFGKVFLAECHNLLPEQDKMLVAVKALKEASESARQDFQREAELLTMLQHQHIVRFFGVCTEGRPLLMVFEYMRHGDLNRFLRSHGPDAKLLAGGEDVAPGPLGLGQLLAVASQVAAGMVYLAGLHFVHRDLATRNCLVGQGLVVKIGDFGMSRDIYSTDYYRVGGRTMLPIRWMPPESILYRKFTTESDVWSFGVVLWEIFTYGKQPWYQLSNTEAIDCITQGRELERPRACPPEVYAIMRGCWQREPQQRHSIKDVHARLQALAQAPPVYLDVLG
row,SMILES,pIC50
1,"Fc1ccc(F)c([C@H]2CCCN2c2ccn3ncc(-c4nc5ccc(SC(F)(F)F)cc5[nH]4)c3n2)c1 [Compound 116, (R)-5-(2-(2,5-difluorophenyl)pyrrolidin-1-yl)-3-(6-((trifluoromethyl)thio)-1H-benzo[d]imidazol-2-yl)pyrazolo[1,5-a]pyrimidine]",7.30 to 8.00
2,"Oc1cc2nc(-c3cnn4ccc(N5CCC[C@@H]5c5cc(F)ccc5F)nc34)[nH]c2cc1O [Compound 117, (R)-2-(5-(2-(2,5-difluorophenyl)pyrrolidin-1-yl)pyrazolo[1,5-a]pyrimidin-3-yl)-1H-benzo[d]imidazole-5,6-diol]",≥ 8.00
3,"Fc1ccc(F)c([C@H]2CCCN2c2ccn3ncc(-c4nc5cc(O[C@@H]6CCOC6)c(O[C@H]6CCOC6)cc5[nH]4)c3n2)c1 [Compound 118, 5-((R)-2-(2,5-difluorophenyl)pyrrolidin-1-yl)-3-(5-(((R)-tetrahydrofuran-3-yl)oxy)-6-(((S)-tetrahydrofuran-3-yl)oxy)-1H-benzo[d]imidazol-2-yl)pyrazolo[1,5-a]pyrimidine]",7.30 to 8.00
4,"N#CCOc1cc2nc(-c3cnn4ccc(N5CCC[C@@H]5c5cc(F)ccc5F)nc34)[nH]c2cc1OCC#N [Compound 119, (R)-2,2′-((2-(5-(2-(2,5-difluorophenyl)pyrrolidin-1-yl)pyrazolo[1,5-a]pyrimidin-3-yl)-1H-benzo[d]imidazole-5,6-diyl)bis(oxy))diacetonitrile]",≥ 8.00
5,"COc1cc2nc(-c3cnn4ccc(N5CCC[C@@H]5c5cc(F)ccc5F)nc34)oc2cc1OC [Compound 120, (R)-2-(5-(2-(2,5-difluorophenyl)pyrrolidin-1-yl)pyrazolo[1,5-a]pyrimidin-3-yl)-5,6-dimethoxybenzo[d]oxazole]",≥ 8.00
6,"Fc1ccc(F)c([C@H]2CCCN2c2ccn3ncc(-c4nc5nc6ccccc6nc5[nH]4)c3n2)c1 [Compound 121, (R)-2-(5-(2-(2,5-difluorophenyl)pyrrolidin-1-yl)pyrazolo[1,5-a]pyrimidin-3-yl)-1H-imidazo[4,5-b]quinoxaline]",7.30 to 8.00
7,"Cc1ccnc2[nH]c(-c3cnn4ccc(N5CCC[C@@H]5c5cc(F)ccc5F)nc34)nc12 [Compound 122, (R)-2-(5-(2-(2,5-difluorophenyl)pyrrolidin-1-yl)pyrazolo[1,5-a]pyrimidin-3-yl)-7-methyl-3H-imidazo[4,5-b]pyridine]",7.30 to 8.00
8,"Cn1c(-c2cnn3ccc(N4CCC[C@@H]4c4cc(F)ccc4F)nc23)nc2cnccc21 [Compound 124, (R)-2-(5-(2-(2,5-difluorophenyl)pyrrolidin-1-yl)pyrazolo[1,5-a]pyrimidin-3-yl)-1-methyl-1H-imidazo[4,5-c]pyridine]",7.30 to 8.00
9,"COc1ccc2nc(-c3cnn4ccc(N5CCC[C@@H]5c5cc(F)ccc5F)nc34)[nH]c2c1F [Compound 127, (R)-5-(2-(2,5-difluorophenyl)pyrrolidin-1-yl)-3-(7-fluoro-6-methoxy-1H-benzo[d]imidazol-2-yl)pyrazolo[1,5-a]pyrimidine]",≥ 8.00
10,"Fc1ccc(F)c([C@H]2CCCN2c2ccn3ncc(-c4nc5nccnc5[nH]4)c3n2)c1 [Compound 128, (R)-2-(5-(2-(2,5-difluorophenyl)pyrrolidin-1-yl)pyrazolo[1,5-a]pyrimidin-3-yl)-1H-imidazo[4,5-b]pyrazine]",≥ 8.00
11,"Fc1ccc(F)c([C@H]2CCCN2c2ccn3ncc(-c4nc5ncc(Br)nc5[nH]4)c3n2)c1 [Compound 129, (R)-6-bromo-2-(5-(2-(2,5-difluorophenyl)pyrrolidin-1-yl)pyrazolo[1,5-a]pyrimidin-3-yl)-1H-imidazo[4,5-b]pyrazine]",≥ 8.00
12,"Fc1ccc(F)c([C@H]2CCCN2c2ccn3ncc(-c4nc5cc6nc7ccccc7nc6cc5[nH]4)c3n2)c1 [Compound 130, (R)-2-(5-(2-(2,5-difluorophenyl)pyrrolidin-1-yl)pyrazolo[1,5-a]pyrimidin-3-yl)-1H-imidazo[4,5-b]phenazine]",< 7.30
13,"Fc1ccc(F)c([C@H]2CCCN2c2ccn3ncc(-c4nc5cc6c(cc5o4)OCO6)c3n2)c1 [Compound 131, (R)-6-(5-(2-(2,5-difluorophenyl)pyrrolidin-1-yl)pyrazolo[1,5-a]pyrimidin-3-yl)-[1,3]dioxolo[4′,5′:4,5]benzo[1,2-d]oxazole]",7.30 to 8.00
14,"OC1CCc2nc(-c3cnn4ccc(N5CCC[C@@H]5c5cc(F)ccc5F)nc34)nn2C1 (stereo partly drawn) [Compound 132, 2-(5-((R)-2-(2,5-difluorophenyl)pyrrolidin-1-yl)pyrazolo[1,5-a]pyrimidin-3-yl)-5,6,7,8-tetrahydro-[1,2,4]triazolo[1,5-a]pyridin-6-ol]",7.30 to 8.00
15,"N#Cc1ccc2[nH]c(-c3cnn4ccc(N5CCC[C@@H]5c5cc(F)ccc5F)nc34)cc2c1 [Compound 133, (R)-2-(5-(2-(2,5-difluorophenyl)pyrrolidin-1-yl)pyrazolo[1,5-a]pyrimidin-3-yl)-1H-indole-5-carbonitrile]",7.30 to 8.00
16,"OCc1cc2nc(-c3cnn4ccc(N5CCC[C@@H]5c5cc(F)ccc5F)nc34)[nH]c2cn1 [Compound 135, (R)-(2-(5-(2-(2,5-difluorophenyl)pyrrolidin-1-yl)pyrazolo[1,5-a]pyrimidin-3-yl)-3H-imidazo[4,5-c]pyridin-6-yl)methanol]",≥ 8.00
17,"Fc1ccc(F)c([C@H]2CCCN2c2ccn3ncc(-c4nc5cc(F)c(C(F)(F)F)cc5[nH]4)c3n2)c1 [Compound 139, (R)-5-(2-(2,5-difluorophenyl)pyrrolidin-1-yl)-3-(5-fluoro-6-(trifluoromethyl)-1H-benzo[d]imidazol-2-yl)pyrazolo[1,5-a]pyrimidine]",< 7.30
18,"CCOc1cc2[nH]c(-c3cnn4ccc(N5CCC[C@@H]5c5cc(F)ccc5F)nc34)nc2cc1C#N [Compound 140, (R)-2-(5-(2-(2,5-difluorophenyl)pyrrolidin-1-yl)pyrazolo[1,5-a]pyrimidin-3-yl)-6-ethoxy-1H-benzo[d]imidazole-5-carbonitrile]",≥ 8.00
19,"CNc1cc2[nH]c(-c3cnn4ccc(N5CCC[C@@H]5c5cc(F)ccc5F)nc34)nc2cc1C#N [Compound 142, (R)-2-(5-(2-(2,5-difluorophenyl)pyrrolidin-1-yl)pyrazolo[1,5-a]pyrimidin-3-yl)-6-(methylamino)-1H-benzo[d]imidazole-5-carbonitrile]",≥ 8.00
20,"N#Cc1cc2nc(-c3cnn4ccc(N5CCC[C@@H]5c5cc(F)ccc5F)nc34)[nH]c2cc1N1CCOCC1 [Compound 143, (R)-2-(5-(2-(2,5-difluorophenyl)pyrrolidin-1-yl)pyrazolo[1,5-a]pyrimidin-3-yl)-6-morpholino-1H-benzo[d]imidazole-5-carbonitrile]",≥ 8.00
21,"N#Cc1cc2nc(-c3cnn4ccc(N5CCC[C@@H]5c5cc(F)ccc5F)nc34)[nH]c2cc1N1CC(O)C1 [Compound 145, (R)-2-(5-(2-(2,5-difluorophenyl)pyrrolidin-1-yl)pyrazolo[1,5-a]pyrimidin-3-yl)-6-(3-hydroxyazetidin-1-yl)-1H-benzo[d]imidazole-5-carbonitrile]",≥ 8.00
22,"O=C1NCCNc2cc3[nH]c(-c4cnn5ccc(N6CCC[C@@H]6c6cc(F)ccc6F)nc45)nc3cc21 [Compound 146, (R)-2-(5-(2-(2,5-difluorophenyl)pyrrolidin-1-yl)pyrazolo[1,5-a]pyrimidin-3-yl)-5,6,7,8-tetrahydroimidazo[4′,5′:4,5]benzo[1,2-e][1,4]diazepin-9(3H)-one]",≥ 8.00
23,"O=C1NCCOc2cc3[nH]c(-c4cnn5ccc(N6CCC[C@@H]6c6cc(F)ccc6F)nc45)nc3cc21 [Compound 147, (R)-2-(5-(2-(2,5-difluorophenyl)pyrrolidin-1-yl)pyrazolo[1,5-a]pyrimidin-3-yl)-7,8-dihydro-3H-imidazo[4′,5′:4,5]benzo[1,2-f][1,4]oxazepin-9(6H)-one]",≥ 8.00
24,"N#Cc1cc2nc(-c3cnn4ccc(N5CCC[C@@H]5c5cc(F)ccc5F)nc34)[nH]c2cc1O [Compound 149, (R)-2-(5-(2-(2,5-difluorophenyl)pyrrolidin-1-yl)pyrazolo[1,5-a]pyrimidin-3-yl)-6-hydroxy-1H-benzo[d]imidazole-5-carbonitrile]",≥ 8.00
25,"N#Cc1cc2nc(-c3cnn4ccc(N5CCC[C@@H]5c5cc(F)ccc5F)nc34)[nH]c2cc1OCCO [Compound 150, (R)-2-(5-(2-(2,5-difluorophenyl)pyrrolidin-1-yl)pyrazolo[1,5-a]pyrimidin-3-yl)-6-(2-hydroxyethoxy)-1H-benzo[d]imidazole-5-carbonitrile]",≥ 8.00

# Same assay, conditions: numeric values; read-out: Trk A Kinase IC50
row,SMILES,pIC50
1,"Fc1ccc(F)c([C@H]2CCCN2c2ccn3ncc(-c4nc5cc6c(cc5[nH]4)OCCCO6)c3n2)c1 [Compound 134, (R)-2-(5-(2-(2,5-difluorophenyl)pyrrolidin-1-yl)pyrazolo[1,5-a]pyrimidin-3-yl)-7,8-dihydro-1H,6H-[1,4]dioxepino[2′,3′:4,5]benzo[1,2-d]imidazole]",8.96
2,"Fc1ccc(F)c([C@H]2CCCN2c2ccn3ncc(-c4nc5cc(F)c(F)cc5[nH]4)c3n2)c1 [Compound 136, (R)-3-(5,6-difluoro-1H-benzo[d]imidazol-2-yl)-5-(2-(2,5-difluorophenyl)pyrrolidin-1-yl)pyrazolo[1,5-a]pyrimidine]",8.72
3,"COC(=O)c1cc2[nH]c(-c3cnn4ccc(N5CCC[C@@H]5c5cc(F)ccc5F)nc34)nc2c(F)c1F [Compound 137, methyl (R)-2-(5-(2-(2,5-difluorophenyl)pyrrolidin-1-yl)pyrazolo[1,5-a]pyrimidin-3-yl)-4,5-difluoro-1H-benzo[d]imidazole-6-carboxylate]",8.58
4,"O=C(O)c1cc2[nH]c(-c3cnn4ccc(N5CCC[C@@H]5c5cc(F)ccc5F)nc34)nc2c(F)c1F [Compound 138, (R)-2-(5-(2-(2,5-difluorophenyl)pyrrolidin-1-yl)pyrazolo[1,5-a]pyrimidin-3-yl)-4,5-difluoro-1H-benzo[d]imidazole-6-carboxylic acid]",9.32
